Experimental data taken from ChEMBL document CHEMBL5543163, “Druglike, 18F-labeled PET Tracers Targeting Fibroblast Activation Protein” (J Med Chem, 2024).

What was measured:
Dipeptidyl peptidase 2 = Dipeptidyl peptidase 2 (Homo sapiens, UniProt Q9UHL4); test: Inhibition of DPP2 (unknown origin) using Lys-Ala-pNA as substrate preincubated for 15 mins followed by substrate addition and measured after 15 mins
Prolyl endopeptidase FAP = target: T1, Prolyl endopeptidase FAP (Homo sapiens, UniProt Q12884); test: Inhibition of FAP (unknown origin) using Z-Gly-Pro-7-amino-4-methylcoumarine as fluorogenic substrate preincubated for 15 mins followed by substrate addition and measured after 15 mins
T1 sequence (Q12884 whole entry): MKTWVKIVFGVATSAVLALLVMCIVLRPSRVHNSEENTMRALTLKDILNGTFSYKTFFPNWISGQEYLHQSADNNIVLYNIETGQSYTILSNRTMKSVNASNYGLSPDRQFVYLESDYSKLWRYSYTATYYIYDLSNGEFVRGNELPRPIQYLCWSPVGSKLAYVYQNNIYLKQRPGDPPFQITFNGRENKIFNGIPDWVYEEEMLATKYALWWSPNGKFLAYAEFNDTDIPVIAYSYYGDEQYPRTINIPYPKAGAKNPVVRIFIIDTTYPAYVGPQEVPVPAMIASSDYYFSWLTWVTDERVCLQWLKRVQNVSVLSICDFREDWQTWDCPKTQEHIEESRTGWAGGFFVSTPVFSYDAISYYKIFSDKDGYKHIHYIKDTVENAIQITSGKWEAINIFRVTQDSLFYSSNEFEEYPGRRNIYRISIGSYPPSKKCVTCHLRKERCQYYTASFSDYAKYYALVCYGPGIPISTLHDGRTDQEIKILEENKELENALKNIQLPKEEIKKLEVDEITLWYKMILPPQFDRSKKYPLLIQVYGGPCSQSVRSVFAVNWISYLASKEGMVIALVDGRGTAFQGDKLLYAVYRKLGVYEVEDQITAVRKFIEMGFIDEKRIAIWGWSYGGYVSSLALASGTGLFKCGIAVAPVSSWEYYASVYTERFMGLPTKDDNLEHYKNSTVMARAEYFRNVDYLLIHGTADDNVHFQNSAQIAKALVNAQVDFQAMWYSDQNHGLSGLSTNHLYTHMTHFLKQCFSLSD

Dipeptidyl peptidase 4 = Dipeptidyl peptidase 4 (Homo sapiens, UniProt P27487); test: Inhibition of DPP4 (unknown origin) using Ala-Pro-paranitroanilide as chromogenic substrate preincubated for 15 mins followed by substrate addition and measured after 15 mins
Dipeptidyl peptidase 8 = Dipeptidyl peptidase 8 (Homo sapiens, UniProt Q6V1X1); test: Inhibition of DPP8 (unknown origin) using Ala-Pro-paranitroanilide as chromogenic substrate preincubated for 15 mins followed by substrate addition and measured after 15 mins
Dipeptidyl peptidase 9 = Dipeptidyl peptidase 9 (Homo sapiens, UniProt Q86TI2); test: Inhibition of DPP9 (unknown origin) using Ala-Pro-paranitroanilide as chromogenic substrate preincubated for 15 mins followed by substrate addition and measured after 15 mins
Prolyl endopeptidase = target: T2, Prolyl endopeptidase (Homo sapiens, UniProt P48147); test: Inhibition of PREP (unknown origin) using N-succinyl-Gly-Pro-AMC as substrate preincubated for 15 mins followed by substrate addition and measured after 15 mins
T2 sequence (P48147 whole entry): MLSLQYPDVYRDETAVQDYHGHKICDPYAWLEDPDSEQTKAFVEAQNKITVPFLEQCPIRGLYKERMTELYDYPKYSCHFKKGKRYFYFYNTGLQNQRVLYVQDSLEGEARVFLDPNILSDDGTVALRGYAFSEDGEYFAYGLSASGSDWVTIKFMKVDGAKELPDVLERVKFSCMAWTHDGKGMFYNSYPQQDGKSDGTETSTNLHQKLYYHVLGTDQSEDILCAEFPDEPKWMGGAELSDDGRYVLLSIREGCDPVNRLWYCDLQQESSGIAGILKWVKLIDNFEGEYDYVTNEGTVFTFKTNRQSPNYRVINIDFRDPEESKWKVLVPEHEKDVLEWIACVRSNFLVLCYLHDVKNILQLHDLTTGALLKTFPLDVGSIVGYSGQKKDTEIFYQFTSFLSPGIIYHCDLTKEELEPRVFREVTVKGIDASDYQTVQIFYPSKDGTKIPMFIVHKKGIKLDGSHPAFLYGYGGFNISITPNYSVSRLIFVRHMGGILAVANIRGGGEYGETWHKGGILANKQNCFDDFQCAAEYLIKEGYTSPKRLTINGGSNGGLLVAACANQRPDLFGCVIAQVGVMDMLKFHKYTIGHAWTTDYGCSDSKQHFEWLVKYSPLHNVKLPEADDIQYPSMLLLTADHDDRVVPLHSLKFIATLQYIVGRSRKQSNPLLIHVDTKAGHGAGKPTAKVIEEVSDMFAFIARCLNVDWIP

Chain of Dipeptidyl peptidase 9 (Q86TI2 whole entry): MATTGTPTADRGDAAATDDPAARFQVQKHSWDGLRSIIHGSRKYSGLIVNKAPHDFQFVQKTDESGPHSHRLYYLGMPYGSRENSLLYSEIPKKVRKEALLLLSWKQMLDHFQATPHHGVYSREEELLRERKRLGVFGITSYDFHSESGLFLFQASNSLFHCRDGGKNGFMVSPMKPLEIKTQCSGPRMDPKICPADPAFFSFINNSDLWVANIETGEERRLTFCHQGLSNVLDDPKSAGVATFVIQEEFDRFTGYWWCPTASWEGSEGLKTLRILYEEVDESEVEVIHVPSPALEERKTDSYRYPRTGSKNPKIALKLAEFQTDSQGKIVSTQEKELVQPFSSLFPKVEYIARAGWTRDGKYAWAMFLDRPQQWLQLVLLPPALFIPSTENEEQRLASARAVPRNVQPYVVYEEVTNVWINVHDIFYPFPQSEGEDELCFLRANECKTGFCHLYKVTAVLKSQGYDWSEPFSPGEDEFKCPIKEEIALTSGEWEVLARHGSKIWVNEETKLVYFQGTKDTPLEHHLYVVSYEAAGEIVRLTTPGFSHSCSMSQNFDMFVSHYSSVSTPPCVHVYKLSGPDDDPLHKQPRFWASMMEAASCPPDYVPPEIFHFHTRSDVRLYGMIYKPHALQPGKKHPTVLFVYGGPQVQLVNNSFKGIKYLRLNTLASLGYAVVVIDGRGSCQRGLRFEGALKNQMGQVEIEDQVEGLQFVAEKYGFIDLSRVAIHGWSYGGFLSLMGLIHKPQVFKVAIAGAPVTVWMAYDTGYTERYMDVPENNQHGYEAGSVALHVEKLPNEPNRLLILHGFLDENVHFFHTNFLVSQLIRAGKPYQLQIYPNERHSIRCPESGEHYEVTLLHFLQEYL
Chain of Dipeptidyl peptidase 4 (P27487 whole entry): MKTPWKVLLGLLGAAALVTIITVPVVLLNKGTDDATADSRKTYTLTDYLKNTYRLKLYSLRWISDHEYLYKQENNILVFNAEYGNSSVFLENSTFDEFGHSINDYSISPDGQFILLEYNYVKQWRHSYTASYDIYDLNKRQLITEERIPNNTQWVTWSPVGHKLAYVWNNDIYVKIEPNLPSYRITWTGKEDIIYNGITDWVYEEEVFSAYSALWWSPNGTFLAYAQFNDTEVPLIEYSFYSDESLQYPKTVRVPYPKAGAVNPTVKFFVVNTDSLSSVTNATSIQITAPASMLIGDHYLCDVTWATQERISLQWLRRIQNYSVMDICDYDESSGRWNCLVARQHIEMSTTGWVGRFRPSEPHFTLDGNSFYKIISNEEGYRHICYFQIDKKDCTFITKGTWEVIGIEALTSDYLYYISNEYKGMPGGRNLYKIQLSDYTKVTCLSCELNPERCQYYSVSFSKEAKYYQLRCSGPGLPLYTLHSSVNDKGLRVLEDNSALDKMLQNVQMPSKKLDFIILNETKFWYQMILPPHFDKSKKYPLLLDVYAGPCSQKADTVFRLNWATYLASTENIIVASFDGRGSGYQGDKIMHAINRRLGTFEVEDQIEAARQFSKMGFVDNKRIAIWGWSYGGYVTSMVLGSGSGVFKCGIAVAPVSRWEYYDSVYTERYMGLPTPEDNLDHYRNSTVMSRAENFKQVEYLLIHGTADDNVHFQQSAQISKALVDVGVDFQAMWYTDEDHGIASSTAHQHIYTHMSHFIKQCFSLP
Chain of Dipeptidyl peptidase 8 (Q6V1X1 whole entry): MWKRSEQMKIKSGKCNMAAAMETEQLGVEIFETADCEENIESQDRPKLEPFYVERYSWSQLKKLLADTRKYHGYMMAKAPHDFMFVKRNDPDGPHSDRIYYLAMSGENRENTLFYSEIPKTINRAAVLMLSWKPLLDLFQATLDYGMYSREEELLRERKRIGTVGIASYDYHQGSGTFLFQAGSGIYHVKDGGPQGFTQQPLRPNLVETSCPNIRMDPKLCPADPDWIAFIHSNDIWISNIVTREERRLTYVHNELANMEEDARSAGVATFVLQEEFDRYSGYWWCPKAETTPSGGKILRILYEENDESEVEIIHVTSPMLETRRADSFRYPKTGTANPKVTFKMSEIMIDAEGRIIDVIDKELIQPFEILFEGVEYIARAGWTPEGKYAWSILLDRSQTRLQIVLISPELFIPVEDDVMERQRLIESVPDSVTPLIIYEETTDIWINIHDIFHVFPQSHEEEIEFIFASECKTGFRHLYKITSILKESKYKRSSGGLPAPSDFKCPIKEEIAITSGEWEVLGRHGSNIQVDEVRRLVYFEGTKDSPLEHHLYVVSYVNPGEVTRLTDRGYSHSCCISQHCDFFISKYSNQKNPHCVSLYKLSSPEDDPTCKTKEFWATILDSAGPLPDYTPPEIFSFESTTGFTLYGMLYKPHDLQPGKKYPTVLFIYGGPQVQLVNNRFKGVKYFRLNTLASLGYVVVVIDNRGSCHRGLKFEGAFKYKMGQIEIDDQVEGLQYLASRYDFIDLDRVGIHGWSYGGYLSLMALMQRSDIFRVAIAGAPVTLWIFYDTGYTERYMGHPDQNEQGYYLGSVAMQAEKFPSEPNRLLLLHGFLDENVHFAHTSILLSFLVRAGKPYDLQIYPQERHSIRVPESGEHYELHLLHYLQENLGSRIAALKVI

IC50 (Dipeptidyl peptidase 2)	IC50 (Prolyl endopeptidase FAP)	IC50 (Dipeptidyl peptidase 4)	IC50 (Dipeptidyl peptidase 8)	IC50 (Dipeptidyl peptidase 9)	IC50 (Prolyl endopeptidase)	Structure (SMILES)
> 10 µM						C[N+](C)(CF)CCCOc1ccc2nccc(C(=O)NCC(=O)N3CC(F)(F)C[C@H]3C#N)c2c1
> 10 µM	0.00046 µM	> 10 µM	> 10 µM	> 10 µM	> 10 µM	CC1(C)O[C@@H](CF)[C@H](COc2ccc3nccc(C(=O)NCC(=O)N4CC(F)(F)C[C@H]4C#N)c3c2)O1
> 10 µM	0.0014 µM	> 10 µM	5.8 µM	1.6 µM	> 10 µM	COC(CF)COc1ccc2nccc(C(=O)NCC(=O)N3CC(F)(F)C[C@H]3C#N)c2c1 (some centres undefined)
> 10 µM	0.00177 µM	> 10 µM	> 10 µM	> 10 µM	> 10 µM	N#C[C@@H]1CC(F)(F)CN1C(=O)CNC(=O)c1ccnc2ccc(OC[C@H](O)[C@@H](O)CF)cc12
